In publication PMC3237907 (Nano letters, 2011):

Target: T1, ParM mutant (His6/K33A/D63C/T174A/T175N/D224C/C287A), TMR-labelled ADP sensor (Escherichia coli, UniProt P11904, C287A/D224C/D63C/K33A/T174A/T175N)
T1 sequence (P11904 1-320 K33A/D63C/T174A/T175N/D224C/C287A): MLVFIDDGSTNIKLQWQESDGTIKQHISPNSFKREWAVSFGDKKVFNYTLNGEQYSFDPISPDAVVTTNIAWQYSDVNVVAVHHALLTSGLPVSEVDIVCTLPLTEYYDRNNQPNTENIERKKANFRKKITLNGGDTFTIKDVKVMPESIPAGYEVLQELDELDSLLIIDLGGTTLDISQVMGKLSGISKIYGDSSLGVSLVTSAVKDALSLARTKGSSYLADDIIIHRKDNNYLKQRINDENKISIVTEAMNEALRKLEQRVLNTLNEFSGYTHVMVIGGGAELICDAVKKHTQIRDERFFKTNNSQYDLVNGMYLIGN
Assay: single-molecule TIRF, TMR self-quenching
Type: binding

SMILES: Nc1ncnc2c1ncn2[C@@H]1O[C@H](COP(=O)(O)OP(=O)(O)O)[C@@H](O)[C@H]1O [ADP]
- Kd: 20 ± 3 µM
